Reference: patent US20090137572A1, “2-substituted-4-heteroaryl-pyrimidines useful for the treatment of proliferative disorders” (priority 2004, published 2009)

Legend:
[1] = molecular target: protein kinases (panel of Table 4) (Homo sapiens, UniProt P12931); assay: Kinase selectivity profile, kinase inhibition IC50 (Table 4), ATP 100 μM; format: biochemical; conditions: kinase Src
PKCa = PKCa (Homo sapiens, UniProt P17252); assay: Kinase selectivity profile, PKCa; format: biochemical; conditions: 5 μM test compound, compared to control; ATP 20 μM
Procedure: (§1) The kinase selectivity profiles of selected example compounds were determined, essentially as described (Bain, J.; McLauchlan, H.; Elliott, M.; Cohen, P. Biochemical Journal, 2003, 371, 199.); the results are shown in Tables 3 & 4. For the assays shown in Table 3, the kinases were assayed at the following ATP concentrations: SAPK4, PKBΔph, GSK3b, SAPK3, CK2, MKK1, PIM2, IKKB, ERK8, and PRK2 at 5 μM; JNK, PRAK, ROCK-II, SAPK2b, CDK2, CHK1, MSK1, CSK, P70S6K, PKA, CK1, MAPKAP-K2, SGK, PKCa, PDK1, NEK 7, and MAPKAP-K3 at 20 μM; SAPK2a, LCK, AMPK, MAPK2, DYRK1a, MAPKAP-K1a, NEK-6, NEK2a, PBK, CAMK-1, SRPK-1, JNK3, MNK2, RSK2, MNK1, PKBB, and SmMLCK at 50 μM. For the assays in Table 4 the ATP concentration was 100 μM throughout.

MSK1 = MSK1 (Homo sapiens, UniProt O75582); assay: Kinase selectivity profile, MSK1; format: biochemical; conditions: 5 μM test compound, compared to control; ATP 20 μM
MSK1, sequence (O75582 whole entry, species assumed): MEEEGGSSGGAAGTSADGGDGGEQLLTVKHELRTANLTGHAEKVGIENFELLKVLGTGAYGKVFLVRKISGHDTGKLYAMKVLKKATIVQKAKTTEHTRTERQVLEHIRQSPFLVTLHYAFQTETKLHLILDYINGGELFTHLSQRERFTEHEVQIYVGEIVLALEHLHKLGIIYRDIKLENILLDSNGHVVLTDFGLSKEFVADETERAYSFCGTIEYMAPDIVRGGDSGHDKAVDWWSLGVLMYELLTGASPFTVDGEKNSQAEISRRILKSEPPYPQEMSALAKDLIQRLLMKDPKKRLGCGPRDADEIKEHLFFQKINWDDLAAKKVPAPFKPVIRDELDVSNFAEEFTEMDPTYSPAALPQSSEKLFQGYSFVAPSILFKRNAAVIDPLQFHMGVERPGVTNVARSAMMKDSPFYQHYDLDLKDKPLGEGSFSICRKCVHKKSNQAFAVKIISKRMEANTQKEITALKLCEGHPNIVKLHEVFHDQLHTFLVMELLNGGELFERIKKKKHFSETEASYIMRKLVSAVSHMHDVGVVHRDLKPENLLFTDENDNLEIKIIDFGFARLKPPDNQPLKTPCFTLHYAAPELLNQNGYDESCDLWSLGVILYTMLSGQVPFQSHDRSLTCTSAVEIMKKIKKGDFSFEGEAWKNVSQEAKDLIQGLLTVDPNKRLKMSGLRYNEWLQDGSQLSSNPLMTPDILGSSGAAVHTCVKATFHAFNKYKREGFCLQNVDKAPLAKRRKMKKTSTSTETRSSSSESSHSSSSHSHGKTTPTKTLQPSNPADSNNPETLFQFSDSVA
Procedure: as §1

PHK = assay: Kinase selectivity profile, PHK; format: biochemical; conditions: 5 μM test compound, compared to control
Procedure: as §1

MAPK2/ERK2 = MAPK2/ERK2 (Homo sapiens, UniProt P28482); assay: Kinase selectivity profile, MAPK2/ERK2; format: biochemical; conditions: 5 μM test compound, compared to control; ATP 50 μM
MAPK2/ERK2, sequence (P28482 whole entry): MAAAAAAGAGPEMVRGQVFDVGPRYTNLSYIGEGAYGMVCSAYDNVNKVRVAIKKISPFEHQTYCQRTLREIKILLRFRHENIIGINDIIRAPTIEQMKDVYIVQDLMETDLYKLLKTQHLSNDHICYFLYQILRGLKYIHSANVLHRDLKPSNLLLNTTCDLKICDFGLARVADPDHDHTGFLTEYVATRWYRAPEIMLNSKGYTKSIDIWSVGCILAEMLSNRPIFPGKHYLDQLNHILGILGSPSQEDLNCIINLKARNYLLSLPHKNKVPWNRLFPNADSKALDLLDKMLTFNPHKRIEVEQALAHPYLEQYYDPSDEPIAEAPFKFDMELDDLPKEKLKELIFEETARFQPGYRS
Procedure: as §1

AMPK = assay: Kinase selectivity profile, AMPK; format: biochemical; conditions: 5 μM test compound, compared to control; ATP 50 μM
Procedure: as §1

MKK1 = MKK1 (Homo sapiens, UniProt Q02750); assay: Kinase selectivity profile, MKK1; format: biochemical; conditions: 5 μM test compound, compared to control; ATP 5 μM
MKK1, sequence (Q02750 whole entry, species assumed): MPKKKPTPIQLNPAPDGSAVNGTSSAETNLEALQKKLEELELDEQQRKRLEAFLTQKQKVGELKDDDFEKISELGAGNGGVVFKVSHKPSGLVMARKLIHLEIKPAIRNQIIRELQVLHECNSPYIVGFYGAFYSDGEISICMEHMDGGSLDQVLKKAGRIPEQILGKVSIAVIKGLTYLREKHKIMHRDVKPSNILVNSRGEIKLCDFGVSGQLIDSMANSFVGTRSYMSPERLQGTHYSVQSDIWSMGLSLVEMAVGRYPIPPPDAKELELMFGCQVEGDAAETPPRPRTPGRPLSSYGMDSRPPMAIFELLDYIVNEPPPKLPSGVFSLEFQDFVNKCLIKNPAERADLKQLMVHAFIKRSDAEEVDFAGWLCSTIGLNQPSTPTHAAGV
Procedure: as §1

CAMK-1 = CAMK-1 (Homo sapiens, UniProt Q14012); assay: Kinase selectivity profile, CAMK-1; format: biochemical; conditions: 5 μM test compound, compared to control; ATP 50 μM
CAMK-1, sequence (Q14012 whole entry, species assumed): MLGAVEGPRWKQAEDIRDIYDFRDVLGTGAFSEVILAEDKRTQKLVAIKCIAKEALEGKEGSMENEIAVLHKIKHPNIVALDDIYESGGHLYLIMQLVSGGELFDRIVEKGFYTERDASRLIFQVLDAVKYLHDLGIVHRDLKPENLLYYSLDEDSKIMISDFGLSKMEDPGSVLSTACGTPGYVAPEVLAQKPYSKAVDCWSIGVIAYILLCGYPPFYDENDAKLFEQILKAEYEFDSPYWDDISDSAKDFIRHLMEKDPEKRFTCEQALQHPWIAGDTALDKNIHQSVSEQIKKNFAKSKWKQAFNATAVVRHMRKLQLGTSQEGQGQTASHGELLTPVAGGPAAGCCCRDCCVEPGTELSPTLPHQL
Procedure: as §1

NEK6 = NEK6 (Homo sapiens, UniProt Q9HC98); assay: Kinase selectivity profile, NEK6; format: biochemical; conditions: 5 μM test compound, compared to control; ATP 50 μM
Procedure: as §1

PRAK = PRAK (Homo sapiens, UniProt Q8IW41); assay: Kinase selectivity profile, PRAK; format: biochemical; conditions: 5 μM test compound, compared to control; ATP 20 μM
Procedure: as §1

MAPKAP-K2 = MAPKAP-K2 (Homo sapiens, UniProt P49137); assay: Kinase selectivity profile, MAPKAP-K2; format: biochemical; conditions: 5 μM test compound, compared to control; ATP 20 μM
Procedure: as §1

ERK8 = ERK8 (Homo sapiens, UniProt Q8TD08); assay: Kinase selectivity profile, ERK8; format: biochemical; conditions: 5 μM test compound, compared to control; ATP 5 μM
ERK8, sequence (Q8TD08 whole entry, species assumed): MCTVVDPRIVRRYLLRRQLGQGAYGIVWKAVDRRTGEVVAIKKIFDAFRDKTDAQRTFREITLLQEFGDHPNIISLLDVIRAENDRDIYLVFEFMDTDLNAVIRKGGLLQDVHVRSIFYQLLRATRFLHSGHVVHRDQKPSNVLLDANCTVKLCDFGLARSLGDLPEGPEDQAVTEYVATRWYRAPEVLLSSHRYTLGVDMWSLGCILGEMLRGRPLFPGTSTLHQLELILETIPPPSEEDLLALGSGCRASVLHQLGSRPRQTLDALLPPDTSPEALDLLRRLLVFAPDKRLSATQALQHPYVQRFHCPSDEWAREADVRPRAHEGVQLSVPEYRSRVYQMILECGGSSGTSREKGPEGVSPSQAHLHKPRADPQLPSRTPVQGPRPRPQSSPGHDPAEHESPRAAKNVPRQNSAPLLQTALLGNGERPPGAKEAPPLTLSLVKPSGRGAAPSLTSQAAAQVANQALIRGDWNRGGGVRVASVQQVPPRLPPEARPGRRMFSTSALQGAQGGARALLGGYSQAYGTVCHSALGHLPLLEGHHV
Procedure: as §1

PIM2 = PIM2 (Homo sapiens, UniProt Q9P1W9); assay: Kinase selectivity profile, PIM2; format: biochemical; conditions: 5 μM test compound, compared to control; ATP 5 μM
PIM2, sequence (Q9P1W9 whole entry, species assumed): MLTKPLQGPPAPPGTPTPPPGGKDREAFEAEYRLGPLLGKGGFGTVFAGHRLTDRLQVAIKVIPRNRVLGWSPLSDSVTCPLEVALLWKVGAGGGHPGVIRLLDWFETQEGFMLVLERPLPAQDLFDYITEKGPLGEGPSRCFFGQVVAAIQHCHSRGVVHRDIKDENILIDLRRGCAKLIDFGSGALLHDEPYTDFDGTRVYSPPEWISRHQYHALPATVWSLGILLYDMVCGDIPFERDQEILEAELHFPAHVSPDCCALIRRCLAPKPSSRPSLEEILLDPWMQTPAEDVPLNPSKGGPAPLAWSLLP
Procedure: as §1

MAPKAP-K1a = MAPKAP-K1a (Homo sapiens, UniProt Q15418); assay: Kinase selectivity profile, MAPKAP-K1a; format: biochemical; conditions: 5 μM test compound, compared to control; ATP 50 μM
Procedure: as §1

CK2 = assay: Kinase selectivity profile, CK2; format: biochemical; conditions: 5 μM test compound, compared to control; ATP 5 μM
Procedure: as §1

JNK3 = JNK3 (Homo sapiens, UniProt P53779); assay: Kinase selectivity profile, JNK3; format: biochemical; conditions: 5 μM test compound, compared to control; ATP 50 μM
JNK3, sequence (P53779 whole entry, species assumed): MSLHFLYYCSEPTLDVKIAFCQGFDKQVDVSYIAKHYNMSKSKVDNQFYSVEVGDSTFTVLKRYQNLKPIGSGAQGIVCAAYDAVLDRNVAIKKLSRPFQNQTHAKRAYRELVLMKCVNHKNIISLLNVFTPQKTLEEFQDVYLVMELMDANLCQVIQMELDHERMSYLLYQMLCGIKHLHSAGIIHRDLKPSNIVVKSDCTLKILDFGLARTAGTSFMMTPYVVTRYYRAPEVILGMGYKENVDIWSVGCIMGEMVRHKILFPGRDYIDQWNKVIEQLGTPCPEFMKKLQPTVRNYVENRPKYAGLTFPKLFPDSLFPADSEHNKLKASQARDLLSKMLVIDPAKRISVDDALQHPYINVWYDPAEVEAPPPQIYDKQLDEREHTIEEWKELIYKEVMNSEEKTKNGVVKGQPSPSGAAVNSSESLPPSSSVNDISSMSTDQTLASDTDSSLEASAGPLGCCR
Procedure: as §1

SAPK3/p38g = SAPK3/p38g (Homo sapiens, UniProt P53778); assay: Kinase selectivity profile, SAPK3/p38g; format: biochemical; conditions: 5 μM test compound, compared to control; ATP 5 μM
SAPK3/p38g, sequence (P53778 whole entry): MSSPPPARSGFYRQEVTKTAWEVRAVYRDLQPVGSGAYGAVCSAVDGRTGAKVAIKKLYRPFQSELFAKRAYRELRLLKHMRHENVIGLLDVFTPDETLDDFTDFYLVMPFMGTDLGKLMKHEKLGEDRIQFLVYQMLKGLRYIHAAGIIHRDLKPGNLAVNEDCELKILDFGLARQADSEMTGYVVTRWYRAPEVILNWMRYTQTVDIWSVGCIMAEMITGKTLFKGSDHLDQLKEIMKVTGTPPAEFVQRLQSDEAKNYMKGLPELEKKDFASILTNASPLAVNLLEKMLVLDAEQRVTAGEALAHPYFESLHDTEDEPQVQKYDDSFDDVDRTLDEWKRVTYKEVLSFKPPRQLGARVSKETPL
Procedure: as §1

SRPK1 = SRPK1 (Homo sapiens, UniProt Q96SB4); assay: Kinase selectivity profile, SRPK1; format: biochemical; conditions: 5 μM test compound, compared to control; ATP 50 μM
SRPK1, sequence (Q96SB4 whole entry, species assumed): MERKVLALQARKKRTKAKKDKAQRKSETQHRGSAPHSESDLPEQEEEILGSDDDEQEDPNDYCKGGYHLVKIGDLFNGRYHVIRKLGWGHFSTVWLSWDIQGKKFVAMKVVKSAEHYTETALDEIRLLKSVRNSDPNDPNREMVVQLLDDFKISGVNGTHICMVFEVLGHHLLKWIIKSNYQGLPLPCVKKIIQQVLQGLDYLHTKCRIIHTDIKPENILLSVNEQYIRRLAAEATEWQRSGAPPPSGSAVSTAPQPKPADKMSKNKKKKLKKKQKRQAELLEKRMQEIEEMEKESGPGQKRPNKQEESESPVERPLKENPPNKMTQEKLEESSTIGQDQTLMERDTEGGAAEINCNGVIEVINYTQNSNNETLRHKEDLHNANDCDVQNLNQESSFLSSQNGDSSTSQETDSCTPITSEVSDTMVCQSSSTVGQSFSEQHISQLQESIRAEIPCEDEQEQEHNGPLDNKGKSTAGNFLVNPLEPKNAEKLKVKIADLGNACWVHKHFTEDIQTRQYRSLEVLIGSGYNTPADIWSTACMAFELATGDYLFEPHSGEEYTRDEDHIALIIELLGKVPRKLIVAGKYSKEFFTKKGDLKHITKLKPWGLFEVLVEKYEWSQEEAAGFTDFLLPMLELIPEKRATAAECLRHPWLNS
Procedure: as §1

PKBb = PKBb (Homo sapiens, UniProt P31751); assay: Kinase selectivity profile, PKBb; format: biochemical; conditions: 5 μM test compound, compared to control; ATP 50 μM
Procedure: as §1

CNc1nc(C)c(-c2ccnc(Nc3cccc(S(N)(=O)=O)c3)n2)s1 [Compound 19, 3-[4-(4-Methyl-2-methylamino-thiazol-5-yl)-pyrimidin-2-ylamino]-benzenesulfonamide]
IC50 [1]: 1.2 µM

COCCNS(=O)(=O)c1cccc(Nc2nccc(-c3sc(N)nc3C)n2)c1 [Compound 55, 3-[4-(2-Amino-4-methyl-thiazol-5-yl)-pyrimidin-2-ylamino]-N-(2-methoxy-ethyl)-benzenesulfonamide]
melting point: 179 to 180 °C

CCNc1nc(C)c(-c2ccnc(Nc3ccc(N4CCNCC4)cc3)n2)s1 [Compound 59, [4-(2-Ethylamino-4-methyl-thiazol-5-yl)-pyrimidin-2-yl]-(4-piperazin-1-yl-phenyl)-amine]
remaining activity at 5 µM (PKCa): 33%
remaining activity at 5 µM (MSK1): 45%
Remaining activity (%) PHK (PHK): 3%
remaining activity at 5 µM (MAPK2/ERK2): 59%
Remaining activity (%) AMPK (AMPK): 2%
remaining activity at 5 µM (MKK1): 25%
remaining activity at 5 µM (CAMK-1): 30%
remaining activity at 5 µM (NEK6): 47%
remaining activity at 5 µM (PRAK): 44%
remaining activity at 5 µM (MAPKAP-K2): 84%
remaining activity at 5 µM (ERK8): 4%
remaining activity at 5 µM (PIM2): 80%
remaining activity at 5 µM (MAPKAP-K1a): 14%
Remaining activity (%) CK2 (CK2): 2%
remaining activity at 5 µM (JNK3): 13%
remaining activity at 5 µM (SAPK3/p38g): 69%
remaining activity at 5 µM (SRPK1): 88%
remaining activity at 5 µM (PKBb): 75%

Cc1nc(CS(=O)(=O)c2cccs2)sc1-c1ccnc(Nc2ccc(N3CCOCC3)cc2)n1 [Compound 138, {4-[4-Methyl-2-(thiophene-2-sulfonylmethyl)-thiazol-5-yl]-pyrimidin-2-yl}-(4-morpholin-4-yl-phenyl)-amine]
remaining activity at 5 µM (PKCa): 41%
remaining activity at 5 µM (MSK1): 69%
Remaining activity (%) PHK (PHK): 15%
remaining activity at 5 µM (MAPK2/ERK2): 39%
Remaining activity (%) AMPK (AMPK): 28%
remaining activity at 5 µM (MKK1): 21%
remaining activity at 5 µM (CAMK-1): 91%
remaining activity at 5 µM (NEK6): 80%
remaining activity at 5 µM (PRAK): 59%
remaining activity at 5 µM (MAPKAP-K2): 84%
remaining activity at 5 µM (ERK8): 11%
remaining activity at 5 µM (PIM2): 93%
remaining activity at 5 µM (MAPKAP-K1a): 34%
Remaining activity (%) CK2 (CK2): 5%
remaining activity at 5 µM (JNK3): 15%
remaining activity at 5 µM (SAPK3/p38g): 74%
remaining activity at 5 µM (SRPK1): 110%
remaining activity at 5 µM (PKBb): 92%
